Data as given in patent US5130117A, “Radiohalogenated benzazepine derivatives and method of imaging dopamine receptors therewith” (Trustees of the University of Pennsylvania, priority 1991, dated 1992).
“Also recorded” adds a separate entry of the source. Structures can show the parent of a compound that is named as a salt. Where two headings read alike, the source gives them in different places. Values belong to the molecule of their own block, whether it stands above or below them.

Columns and labels:
[1] = target: T1, dopamine D-1 receptor (rat striatal membranes) (Rattus norvegicus, UniProt P18901); experiment: Competition: inhibition of [^125 I]FISCH binding to rat striatal membranes; details: for Ki: 0.15-0.30 nM [^125 I]FISCH, rat striatal membranes, three to five determinations, read-out: ki (mean + SEM)
T1 construct: Striatal tissues were excised, pooled and homogenized; from tissue; host or cells: striatum of male Sprague-Dawley rats
Description: indicated compounds in 7-11 concentrations and of membrane preparation
from rat striatum. Each value represenets the mean ± SEM of three to
(§1) Male Sprague-Dawley rats (200-250g) were decapitated, and the brains were removed and placed in ice. Striatal tissues were excised, pooled and homogenized in 100 volumes(w/v) of ice-cold Tris-HCl buffer (50 mM), pH 7.4. The homogenates were centrifuged at 20,000×g for 20 min. The resultant pellets were rehomogenized in the same buffer and centrifuged again. The final pellets were resuspended in assay buffer containing: 50 mM Tris buffer pH 7.4, 120 mM NaCl, 5 mM KCl, 2mM CaCl2 and 1 mM MgCl2.
(§2) The binding assays were performed by incubating 50 μl of tissue preparations containing 40-60μg of protein with appropriate amounts of [^125 l]FISCH ligand and competitors in a total volume of 0.2 ml of the assay buffer. After an incubation period of 20 min at 37° C. (with stirring), the samples were rapidly filtered in the cell harvester (Brandel M-24R) under vacuum through Whatman GF/B glass fiber filters pretreated with 0.2% protamine sulfate and washed with 3×5ml of cold (4° C.) 50 mM Tris-HCl buffer, pH 7.4. […] The filters were counted in a gamma counter (Beckman 5500) at an efficiency of 70%.
(§3) Both Scatchard and competition experiments were analyzed using the iterative non-linear least squares curve-fitting program LIGAND.

[2] = Biodistribution in rats of [^125 I]FISCH after iv injection; format: in vivo, male Sprague Dawley rats; details: rat; for brain uptake: iv
Description: Biodistribution of [^125 l]FISCH was studied in male Sprague Dawley rats (225-300g) which were allowed free access to food and water. While under halothane anesthesia, 0.2 ml of a saline solution containing [^125 l]FISCH was injected directly into the femoral vein, and the rats were sacrificed at various time points post injection by cardiac excision under halothane anesthesia. The organs of interest were removed, weighed and radioactivity was counted using a Beckman gamma automatic counter (Model 4000). The percent dose per organ was calculated by a comparison of the tissue counts to suitably diluted aliquots of the injected material. Total activities of blood and muscle were calculated assuming that they are 7% and 40% of total body weight, respectively.

[3] = target: T2, dopamine D-1 receptor (rat striatal homogenate) (Rattus norvegicus, UniProt P18901); experiment: Saturation binding of radioiodinated ligand to rat striatal homogenate; details: for affinity to rat striatal homogenate / Kd compared with [^125 I]IBZP (R-(+), active form): in words; for Kd compared with [^125 I]IBZP (R-(+), active form): similar conditions; for Kd: specific binding, rat striatal homogenate, racemic mixture
T2 construct: Striatal tissues were excised, pooled and homogenized; from tissue; host or cells: striatum of male Sprague-Dawley rats
Description: as §1, §2, §3

D-1 dopamine receptors [4] = details: rat, in vivo; for striatum/cerebellum (ST/CB) ratio: iv
Description: Regional brain distribution in rats was obtained after an iv injection of [^125 l]FISCH. By dissecting, weighing and counting samples from different brain regions (cortex, striatum, hippocampus and cerebellum), % dose/gram of samples was calculated by comparing the sample counts with the counts of the diluted initial dose. The uptake ratio of each region was obtained by dividing % dose/gram of each region with that of the cerebellum.

[5] = target: T1, dopamine D-1 receptor (rat striatal membranes); experiment: Competition: inhibition of [^125 I]TISCH binding to rat striatal membranes; details: for Ki: [^125 I]TISCH, rat striatal membranes, read-out: ki (mean + SEM)
Description: as §1, §2, §3

D-1 receptors = experiment: Activity of optically resolved isomers of FISCH; details: optical resolution of FISCH isomers
From the text: The compounds of this invention can exist as either R- or S- isomers. It is important to note that the aforementioned data were obtained using a racemic mixture of FISCH.

[6] = target: central D-1 dopamine receptors; details: cited from earlier work; for Kd: in vitro binding, rat striatum tissue preparation
D-1 dopamine receptors [7] = details: cited from earlier work
[8] = cited from earlier work
D-1 receptor = details: ^11 C label, PET, human brain; cited from earlier work

T1 sequence (P18901 whole entry): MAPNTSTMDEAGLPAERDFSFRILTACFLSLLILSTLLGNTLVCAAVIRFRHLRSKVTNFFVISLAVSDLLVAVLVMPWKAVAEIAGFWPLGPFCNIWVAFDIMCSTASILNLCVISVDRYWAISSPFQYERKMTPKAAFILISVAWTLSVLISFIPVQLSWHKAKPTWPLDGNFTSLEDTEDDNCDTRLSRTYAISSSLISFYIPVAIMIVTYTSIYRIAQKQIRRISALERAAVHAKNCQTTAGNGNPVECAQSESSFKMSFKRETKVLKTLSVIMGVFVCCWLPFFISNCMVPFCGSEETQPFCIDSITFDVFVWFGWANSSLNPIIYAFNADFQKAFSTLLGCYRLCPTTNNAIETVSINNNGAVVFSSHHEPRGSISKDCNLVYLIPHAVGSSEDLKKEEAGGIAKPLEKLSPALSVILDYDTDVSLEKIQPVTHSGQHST
T2 sequence (P18901 whole entry): as above

SMILES: CN1CCc2cc(Cl)c(O)cc2C(c2ccc([125I])cc2)C1 (racemic) [FISCH, (±)-8-chloro-2,3,4,5-tetrahydro-3-methyl-5-(4'-[^125 I]iodophenyl) -1H-3-benzazepine-7-ol]
selectivity for dopamine D-1 receptor ([1]; in words, from Tables 2 and 3): high selectivity
lung clearance ([2]; fifteen and sixty minutes): rapid clearance
brain uptake / blood-brain barrier passage ([2]; in words): good brain uptake in rats; also recorded: passes through the blood-brain barrier with ease
in vivo stability (deiodination) compared with [^125 I]IBZP ([2]; in words): better in vivo stability
lung uptake ([2]; initial): High initial uptake
brain uptake ([2]; one hour after injection): 0.55 % dose/organ
brain uptake ([2]; two minutes after injection): 2.27 % dose/organ
brain retention compared with [^125 I]IBZP ([2]; one hour post injection): much better
thyroid uptake ([2]; one hour post injection): 0.04%
liver uptake ([2]; throughout the first hour): remains high throughout the first hour
nonspecific binding ([3]; at Kd, rat striatum, FIG. 2): approximately 15%
affinity to rat striatal homogenate [3]: high affinity
Kd compared with [^125 I]IBZP (R-(+), active form) [3]: comparable
ST/CB ratio, change with time (D-1 dopamine receptors [4]): dramatic increase with time
striatum/cerebellum (ST/CB) ratio (D-1 dopamine receptors [4]; 2 min): 1.24
striatum/cerebellum (ST/CB) ratio (D-1 dopamine receptors [4]; 15 min): 1.80
striatum/cerebellum (ST/CB) ratio (D-1 dopamine receptors [4]; 60 min): 2.47

SMILES: COc1cccc(OC)c1OCCNCC1COc2ccccc2O1 (stereo not drawn) [WB 4101, 2(2,6-dimethoxyphenoxyethyl)-aminomethyl-1,4-benzodioxane hydrochloride, reference compound]
Ki [1]: 1270 ± 203 nM

SMILES: CN1CCc2cc(I)c(O)cc2[C@@H](c2ccccc2)C1 [IBZP]
Kd [6]: 0.7 nM
selectivity/specificity for central D-1 dopamine receptors ([6]; in words): high specificity for central D-1 dopamine receptors
blockade of specific uptake regions by pretreatment with SCH-23390 (D-1 dopamine receptors [7]; in vivo autoradiography): can be blocked by pretreatment with SCH-23390
regional distribution in rat brain (caudate putamen, accumbens nucleus and substantia nigra) (D-1 dopamine receptors [7]; in vivo autoradiography): high uptake
uptake ratio of striatum/cerebellum (D-1 dopamine receptors [7]; rat, thirty seconds after injection): 1.1
uptake ratio of striatum/cerebellum (D-1 dopamine receptors [7]; rat, two hours after injection): 5.3
striatum/cerebellum uptake ratio, change with time (D-1 dopamine receptors [7]; rat): increased with time
in vivo and in vitro stability ([8]; in words, deiodination): poor in vivo and in vitro stability
retention time in the brain ([8]; in words): short retention time in the brain
brain uptake ([8]; rat, iv, 2 minutes post injection): 2.7 %dose/organ
brain uptake ([8]; rat, iv, 15 minutes post injection): 1.2 %dose/organ
brain uptake ([8]; rat, iv, 30 minutes post injection): 0.8 %dose/organ
brain uptake ([8]; rat, iv, 60 minutes (one hour) post injection): 0.26 %dose/organ
brain localization ([8]; rat, iv): good localization in rat brains
thyroid uptake ([8]; rat, later time points): high at later time points
thyroid uptake ([8]; rat, one hour post injection): 0.1%

SMILES: CN1CCc2cc(Cl)c(O)cc2[C@@H](c2ccccc2)C1 [SCH-23390, R-(+)-8-chloro-2,3,4,5-tetrahydro-3-methyl5-phenyl-1H-3-benzazepine-7-ol]
Kd [6]: 0.36 nM
regional brain concentration (D-1 receptor): highest concentration in the basal ganglia area

SMILES: CN1CCc2cc(Cl)c(O)cc2C(c2ccc(I)cc2)C1 (racemic) [FISCH, (±)-8-chloro-2,3,4,5-tetrahydro-3-methyl-5-(4'-[^125 I]iodophenyl) -1H-3-benzazepine-7-ol]
Ki [1]: 1.71 ± 0.17 nM
Ki [5]: 2.07 ± 0.35 nM
Kd [3]: 1.43 nM

SMILES: CN1CCc2ccc(O)cc2[C@@H](c2ccccc2)C1 [SKF-83692]
Kd [6]: 197 nM

Other lines, results leading:

Ki [5]: 0.55 ± 0.05 nM
selectivity for dopamine D-1 receptor ([5]; in words, from Tables 2 and 3): high selectivity
affinity to rat striatal homogenate [3]: high affinity
Kd compared with [^125 I]IBZP (R-(+), active form) [3]: comparable
Kd [3]: 0.35 nM
SMILES: CN1CCc2cc(Cl)c(O)cc2C(c2cccc(I)c2)C1 (stereo not drawn) [TISCH]

activity of isomer (D-1 receptors): inactive
SMILES: CN1CCc2cc(Cl)c(O)cc2[C@H](c2ccc(I)cc2)C1 [S- isomer]

activity of isomer (D-1 receptors): active
SMILES: CN1CCc2cc(Cl)c(O)cc2[C@@H](c2ccc(I)cc2)C1 [R+ isomer]

Ki [1]: 13.4 ± 0.54 nM
SMILES: CN1CCc2cc(I)c(O)cc2C(c2ccccc2)C1 (racemic) [(±) IBZP, reference compound]
